Like-named read-outs stand apart in the source and are kept apart here.
System: A375 Sensitive cells
Assay: Viability test, trypan blue exclusion, A375 Sensitive cells
Format: cell-based, human
Settings: Homo sapiens, A-375, viable cells as percentage of DMSO control
Summary of the method: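 A375 (B-Raf, CDKN2A, PTEN mutant) cells were exposed to compounds at 5.0 or 10 μM for 24 or 48 hr; CRO15 also at 0.5–50 μM for 48 hr or 5 μM for 2–48 hr; DMSO control. Viable cells were counted by trypan blue exclusion, as % of control. Three experiments in triplicate.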

[1] = 24 h, read-out: Viab A375 5 μM/ 24 h
[2] = 48 h, read-out: Viab A375 5 μM/ 48 h
[3] = 24 h, read-out: Viab A375 10 μM/ 24 h
[4] = 48 h, read-out: Viab A375 10 μM/ 48 h

Nc1nc(Nc2ccc(Cl)cc2SSc2cc(Cl)ccc2Nc2nc(N)nc(C(Cl)(Cl)Cl)n2)nc(C(Cl)(Cl)Cl)n1 [MTF 233, N2,N2′-(disulfanediylbis(4-chloro-2,1-phenylene))bis(6-(trichloromethyl)-1,3,5-triazine-2,4-diamine)]
viability at 5 µM [1]: 13.9%
viability at 5 µM [2]: 8.9%
viability at 10 µM [3]: 7%
viability at 10 µM [4]: 4.7%

N=C(NC(=N)c1ccccn1)Nc1nc(-c2cccc([N+](=O)[O-])c2)cs1 [MTF 259, N—(N-(4-(3-nitrophenyl)thiazol-2-yl)carbamimidoyl)picolinimidamide]
viability at 5 µM [1]: 157%
viability at 5 µM [2]: 95.7%
viability at 10 µM [3]: 98%
viability at 10 µM [4]: 96.5%

Nc1nc(Nc2ccccc2SSc2ccccc2Nc2nc(N)nc(-c3ccccc3[N+](=O)[O-])n2)nc(-c2ccccc2[N+](=O)[O-])n1 [MTF 463, N2,N2′-(disulfanediylbis(2,1-phenylene))bis(6-(2-nitrophenyl)-1,3,5-triazine-2,4-diamine)]
viability at 5 µM [1]: 80%
viability at 5 µM [2]: 74.3%
viability at 10 µM [3]: 56.1%
viability at 10 µM [4]: 43.4%

N=C(NC(=N)c1ccc(C(F)(F)F)cc1)Nc1nc2ccccc2s1 [MTF 385, N—(N-(benzo[d]thiazol-2-yl)carbamimidoyl)-4-(trifluoromethyl)benzimidamide]
viability at 5 µM [1]: 52.3%
viability at 5 µM [2]: 68.1%
viability at 10 µM [3]: 86.6%
viability at 10 µM [4]: 81.5%

Cc1csc(NC(=N)NC(=N)c2ccccc2Cl)n1 [MTF 284, 2-chloro-N—(N-(4-methylthiazol-2-yl)carbamimidoyl)benzimidamide]
viability at 5 µM [1]: 80.1%
viability at 5 µM [2]: 117%
viability at 10 µM [3]: 104%
viability at 10 µM [4]: 76.9%

Nc1nc(Nc2ccccc2SSc2ccccc2Nc2nc(N)nc(-c3ccccc3Cl)n2)nc(-c2ccccc2Cl)n1 [MTF 450, N2,N2′-(disulfanediylbis(2,1-phenylene))bis(6-(2-chlorophenyl)-1,3,5-triazine-2,4-diamine)]
viability at 5 µM [1]: 38.6%
viability at 5 µM [2]: 54.8%
viability at 10 µM [3]: 38.3%
viability at 10 µM [4]: 49.9%

N=C(NC(=N)c1cccnc1)Nc1nc(-c2cccc([N+](=O)[O-])c2)cs1 [MTF 260, N—(N-(4-(3-nitrophenyl)thiazol-2-yl)carbamimidoyl)nicotinimidamide]
viability at 5 µM [1]: 57%
viability at 5 µM [2]: 32%
viability at 10 µM [3]: 76.7%
viability at 10 µM [4]: 78%

N=C(NC(=N)c1ccc(Cl)cc1)Nc1nc(-c2cccc([N+](=O)[O-])c2)cs1 [MTF 281, 4-chloro-N—(N-(4-(3-nitrophenyl)thiazol-2-yl)carbamimidoyl)benzimidamide]
viability at 5 µM [1]: 79%
viability at 5 µM [2]: 112%
viability at 10 µM [3]: 57.4%
viability at 10 µM [4]: 78%

Nc1nc(Nc2ccccc2SSc2ccccc2Nc2nc(N)nc(-c3ccc(C(F)(F)F)cc3)n2)nc(-c2ccc(C(F)(F)F)cc2)n1 [MTF 394, N2,N2′-(disulfanediylbis(2,1-phenylene))bis(6-(4-(trifluoromethyl)phenyl)-1,3,5-triazine-2,4-diamine)]
viability at 5 µM [1]: 13.1%
viability at 5 µM [2]: 4.4%
viability at 10 µM [3]: 4.5%
viability at 10 µM [4]: 1.1%

N=C(NC(=N)c1cccnc1)Nc1nc2ccccc2s1 [MTF 252, N—(N-(benzo[d]thiazol-2-yl)carbamimidoyl)nicotinimidamide]
viability at 5 µM [1]: 8.6%
viability at 5 µM [2]: 5.2%
viability at 10 µM [3]: 12.9%
viability at 10 µM [4]: 2.6%

CSc1ccccc1Nc1nc(N)nc(C(Cl)(Cl)Cl)n1 [MTF 316, N2-(2-(methylthio)phenyl)-6-(trichloromethyl)-1,3,5-triazine-2,4-diamine]
viability at 5 µM [1]: 124%
viability at 5 µM [2]: 69.6%
viability at 10 µM [3]: 104%
viability at 10 µM [4]: 48.2%

N=C(NC(=N)c1cccc(Br)c1)Nc1nc(-c2cccc([N+](=O)[O-])c2)cs1 [MTF 257, 3-bromo-N—(N-(4-(3-nitrophenyl)thiazol-2-yl)carbamimidoyl)benzimidamide]
viability at 5 µM [1]: 100%
viability at 5 µM [2]: 80.5%
viability at 10 µM [3]: 106%
viability at 10 µM [4]: 62%

Nc1nc(Cc2ccccc2)nc(Nc2ccccc2SSc2ccccc2Nc2nc(N)nc(Cc3ccccc3)n2)n1 [MTF 333]
viability at 5 µM [1]: 94.9%
viability at 5 µM [2]: 35.4%
viability at 10 µM [3]: 28.7%
viability at 10 µM [4]: 24.1%

CSc1ccccc1Nc1nc(N)nc(C(Cl)Cl)n1 [MTF 317, 6-(dichloromethyl)-N2-(2-(methylthio)phenyl)-1,3,5-triazine-2,4-diamine]
viability at 5 µM [1]: 106%
viability at 5 µM [2]: 58.7%
viability at 10 µM [3]: 109%
viability at 10 µM [4]: 70%

N=C(NC(=N)c1ccc2ccccc2c1)Nc1nc2ccccc2s1 [MTF 384, N—(N-(benzo[d]thiazol-2-yl)carbamimidoyl)-2-naphthimidamide]
viability at 5 µM [1]: 76.1%
viability at 5 µM [2]: 119%
viability at 10 µM [3]: 93.3%
viability at 10 µM [4]: 72.2%

Nc1nc(Nc2ccccc2SSc2ccccc2Nc2nc(N)nc(-c3cscc3Br)n2)nc(-c2cscc2Br)n1 [MTF 397, N2,N2′-(disulfanediylbis(2,1-phenylene))bis(6-(4-bromothiophen-3-yl)-1,3,5-triazine-2,4-diamine)]
viability at 5 µM [1]: 35.4%
viability at 5 µM [2]: 33.7%
viability at 10 µM [3]: 13.4%
viability at 10 µM [4]: 7.3%

Nc1nc(Nc2ccccc2SSc2ccccc2Nc2nc(N)nc(-c3ccccn3)n2)nc(-c2ccccn2)n1 [MTF 321, N2,N2′-(disulfanediylbis(2,1-phenylene))bis(6-(pyridin-2-yl)-1,3,5-triazine-2,4-diamine)]
viability at 5 µM [1]: 59.7%
viability at 5 µM [2]: 34.5%
viability at 10 µM [3]: 53.8%
viability at 10 µM [4]: 32.1%

Nc1nc(Nc2ccccc2SSc2ccccc2Nc2nc(N)nc(-c3cc4c(cc3Br)OCO4)n2)nc(-c2cc3c(cc2Br)OCO3)n1 [MTF 458, N2,N2′-(disulfanediylbis(2,1-phenylene))bis(6-(6-bromobenzo[d][1,3]dioxol-5-yl)-1,3,5-triazine-2,4-diamine)]
viability at 5 µM [1]: 58.7%
viability at 5 µM [2]: 86.8%
viability at 10 µM [3]: 46.5%
viability at 10 µM [4]: 104%

N#Cc1cccc(C(=N)NC(=N)Nc2nc3ccccc3s2)c1 [MTF 347, N—(N-(benzo[d]thiazol-2-yl)carbamimidoyl)-3-cyanobenzimidamide]
viability at 5 µM [1]: 26.9%
viability at 5 µM [2]: 6.6%
viability at 10 µM [3]: 27.6%
viability at 10 µM [4]: 6.8%

N=C(NC(=N)c1ccc([N+](=O)[O-])cc1)Nc1nc2ccccc2s1 [MTF 398, N—(N-(benzo[d]thiazol-2-yl)carbamimidoyl)-4-nitrobenzimidamide]
viability at 5 µM [1]: 91.9%
viability at 5 µM [2]: 132%
viability at 10 µM [3]: 91%
viability at 10 µM [4]: 109%

Nc1nc(Nc2ccccc2SSc2ccccc2Nc2nc(N)nc(-c3cccc(Cl)c3)n2)nc(-c2cccc(Cl)c2)n1 [MTF 322, N2,N2′-(disulfanediylbis(2,1-phenylene))bis(6-(3-chlorophenyl)-1,3,5-triazine-2,4-diamine)]
viability at 5 µM [1]: 57.4%
viability at 5 µM [2]: 12.1%
viability at 10 µM [3]: 26.9%
viability at 10 µM [4]: 5.7%

N=C(NC(=N)c1cccnc1)Nc1nc(-c2ccccc2)cs1 [MTF 273, N—(N-(4-phenylthiazol-2-yl)carbamimidoyl)nicotinimidamide]
viability at 5 µM [1]: 46%
viability at 5 µM [2]: 48%
viability at 10 µM [3]: 100%
viability at 10 µM [4]: 100%
